Earlier results in patent US6998391B2, “Method for treating diseases associated with abnormal kinase activity” (SuperGen.Inc., priority 2002, dated 2006).
Counter-ions that a name gives are not always drawn. Like-named read-outs stand apart in the source and are kept apart here. Where no end group is shown, it is not given here.

What was measured:
JAK3 = molecular target: T1, JAK3 (Homo sapiens, UniProt P52333); details: dose-dependent fashion
T1 sequence (P52333 1-1124): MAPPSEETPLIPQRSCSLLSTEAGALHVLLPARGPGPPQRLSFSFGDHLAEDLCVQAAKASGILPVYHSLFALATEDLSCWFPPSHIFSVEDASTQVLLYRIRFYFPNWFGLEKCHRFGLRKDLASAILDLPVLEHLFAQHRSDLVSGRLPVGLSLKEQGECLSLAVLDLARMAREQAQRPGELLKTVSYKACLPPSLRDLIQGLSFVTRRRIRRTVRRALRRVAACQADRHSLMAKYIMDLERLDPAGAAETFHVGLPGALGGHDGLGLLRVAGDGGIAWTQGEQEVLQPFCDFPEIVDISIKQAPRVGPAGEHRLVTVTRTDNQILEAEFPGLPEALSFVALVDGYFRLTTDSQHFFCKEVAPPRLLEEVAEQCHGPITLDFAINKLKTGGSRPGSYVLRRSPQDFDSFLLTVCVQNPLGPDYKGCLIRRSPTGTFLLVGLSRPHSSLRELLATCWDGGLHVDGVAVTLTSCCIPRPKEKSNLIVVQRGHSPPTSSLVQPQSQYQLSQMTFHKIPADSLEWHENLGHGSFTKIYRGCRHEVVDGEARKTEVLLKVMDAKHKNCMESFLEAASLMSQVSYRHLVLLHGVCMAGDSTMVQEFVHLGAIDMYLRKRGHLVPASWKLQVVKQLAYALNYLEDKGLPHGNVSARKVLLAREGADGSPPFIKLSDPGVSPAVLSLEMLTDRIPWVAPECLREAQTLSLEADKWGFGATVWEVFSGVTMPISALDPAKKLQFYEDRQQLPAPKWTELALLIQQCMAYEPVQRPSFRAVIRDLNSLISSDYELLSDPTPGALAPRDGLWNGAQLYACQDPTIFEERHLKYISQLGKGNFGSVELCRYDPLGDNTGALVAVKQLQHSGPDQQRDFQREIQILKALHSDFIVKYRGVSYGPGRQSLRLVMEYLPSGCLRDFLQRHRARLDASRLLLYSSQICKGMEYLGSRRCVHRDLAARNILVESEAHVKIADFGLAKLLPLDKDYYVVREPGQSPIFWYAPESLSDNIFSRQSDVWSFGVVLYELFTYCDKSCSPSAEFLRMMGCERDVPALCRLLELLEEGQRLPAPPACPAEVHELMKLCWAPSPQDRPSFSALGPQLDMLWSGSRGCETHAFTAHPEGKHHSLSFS

ERK1 = details: low doses
[1] = system: platelet-derived growth factor receptor, fibroblast growth factor receptor, and insulin receptor; details: even at high concentrations
[2] = system: erbB receptor tyrosine kinase family; details: human cancer cell lines
Syk [3] = system: Syk
[4] = system: prostate cancer cells and osteoblasts; details: various in vitro and in vivo models
Lck = Lck (Homo sapiens, UniProt P06239)
Chain of Lck (P06239 whole entry, species assumed): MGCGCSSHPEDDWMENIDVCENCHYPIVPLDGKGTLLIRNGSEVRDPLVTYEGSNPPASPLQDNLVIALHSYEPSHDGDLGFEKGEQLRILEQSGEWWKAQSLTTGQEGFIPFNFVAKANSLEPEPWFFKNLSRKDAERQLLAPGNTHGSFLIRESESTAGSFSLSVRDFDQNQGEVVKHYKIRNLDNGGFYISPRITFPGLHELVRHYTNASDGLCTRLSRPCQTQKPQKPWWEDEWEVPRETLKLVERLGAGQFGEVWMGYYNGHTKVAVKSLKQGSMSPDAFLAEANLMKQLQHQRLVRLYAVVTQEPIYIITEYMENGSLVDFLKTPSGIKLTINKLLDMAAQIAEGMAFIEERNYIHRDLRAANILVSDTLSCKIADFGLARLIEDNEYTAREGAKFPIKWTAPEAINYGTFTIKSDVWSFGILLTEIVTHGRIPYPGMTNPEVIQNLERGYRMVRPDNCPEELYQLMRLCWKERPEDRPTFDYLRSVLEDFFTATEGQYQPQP

Syk [5] = molecular target: Syk (Homo sapiens, UniProt P43405)
ZAP-70 = molecular target: T2, ZAP-70 (Homo sapiens, UniProt P43403)
T2 sequence (P43403 1-619): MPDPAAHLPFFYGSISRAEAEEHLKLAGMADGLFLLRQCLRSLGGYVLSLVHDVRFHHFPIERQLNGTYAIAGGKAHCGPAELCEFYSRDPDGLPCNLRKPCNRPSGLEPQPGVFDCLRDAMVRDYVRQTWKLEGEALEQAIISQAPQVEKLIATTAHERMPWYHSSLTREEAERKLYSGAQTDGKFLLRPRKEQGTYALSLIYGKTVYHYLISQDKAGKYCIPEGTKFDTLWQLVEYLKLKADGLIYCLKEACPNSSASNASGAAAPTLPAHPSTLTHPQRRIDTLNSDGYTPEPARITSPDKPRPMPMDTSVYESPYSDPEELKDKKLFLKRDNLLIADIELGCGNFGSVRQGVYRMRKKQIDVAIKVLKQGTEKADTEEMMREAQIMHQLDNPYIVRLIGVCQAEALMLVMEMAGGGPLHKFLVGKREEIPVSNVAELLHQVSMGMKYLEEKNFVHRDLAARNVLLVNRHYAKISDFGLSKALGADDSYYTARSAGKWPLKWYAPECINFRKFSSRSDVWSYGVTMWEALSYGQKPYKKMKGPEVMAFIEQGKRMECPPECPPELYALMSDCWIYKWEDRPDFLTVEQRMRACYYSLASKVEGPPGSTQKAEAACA

tumor microvessels = details: mouse, in vivo
[6] = patients with chronic phase CML

## COc1cc2ncnc(Nc3cc(Br)c(O)c(Br)c3)c2cc1OC [WHI-P97, 4-(3′,5′-dibromo-4′-hydroxylphenyl)-amino-6,7-dimethoxyquinazoline]
JAK3
  JAK3 inhibition: inhibited JAK3

## O=C(NOCC1CC1)c1ccc(F)c(F)c1Nc1ccc(I)cc1Cl [PD184352]
ERK1
  ERK1 activity: abolished
ERK5; low doses
  effect on ERK5: no effect

## C=CC(=O)Nc1cc2c(Nc3ccc(F)c(Cl)c3)ncnc2cc1OCCCN1CCOCC1 [CI-1033]
[1]
  inhibition of tyrosine kinase activity of other receptors: without inhibiting
[2]
  inhibition of tyrosine kinase activity: prompt, potent, and sustained inhibition

## Cc1ccc2c(=O)c3ccccc3n(CCCN)c2c1C.O=C(O)C(=O)O [ER-27319, 3,4-dimethyl-10-(3-aminopropyl)-9-acridone oxalate]
Syk [3]; intact mast cells, not Lyn
  FceRI-mediated degranulation, tyrosine phosphorylation of Syk: inhibits

## Cc1ccc(NC(=O)c2ccc(CN3CCN(C)CC3)cc2)cc1Nc1nccc(-c2cccnc2)n1 [Imatinib mesylate]
CML patients; accelerated phase CML
  complete cytogenetic response: 14%
  complete cytogenetic response maintained for four weeks: 4%
CML patients; accelerated phase CML patients
  remissions: 63%
CML patients; blast phase CML
  complete cytogenetic response: 5%
  complete cytogenetic response maintained for four weeks: 1%
CML patients; blast phase patients
  remissions: 26%
CML patients; chronic phase CML
  complete cytogenetic response: 30%
  complete cytogenetic response maintained for four weeks: 16%
CML patients; [6]
  complete hematologic response: 88%
  major cytogenetic response: 49%

## CO[C@]1(CO)C[C@H]2O[C@]1(C)n1c3ccccc3c3c4c(c5c6ccccc6n2c5c31)C(=O)NC4 [CEP-75 1]
[4]
  apoptosis of prostate cancer cells and osteoblasts: selectively induce apoptosis

## C[C@]12O[C@H](C[C@]1(O)CO)n1c3ccccc3c3c4c(c5c6ccccc6n2c5c31)CNC4=O [CEP-701]
[4]
  apoptosis of prostate cancer cells and osteoblasts: selectively induce apoptosis

## KLILFLLL
Lck
  inhibition of Lck: poor inhibitor
Syk [5]
  inhibition of Syk: poor inhibitor
ZAP-70
  inhibition of ZAP-70: competitive inhibitor

## Oc1cc(O)cc(/C=C/c2ccc(O)c(O)c2)c1 [Piceatannol, 3,4,3′,5′-tetrahydroxy-trans-stilbene]
Syk [3]; by inhibiting Syk
  FceRI-mediated IP3 production, serotonin secretion, membrane ruffling and cell spreading: inhibits

## COc1cc2ncnc(Nc3ccc(O)c(Br)c3)c2cc1OC [WHI-P 154, 4-(3′-bromo-4′-hydroxylphenyl)-amino-6,7-dimethoxyquinazoline]
JAK3
  JAK3 inhibition: inhibited JAK3

## N#CC(=C(/N)Sc1ccccc1N)/C(C#N)=C(\N)Sc1ccccc1N [U0126]
ERK1/2 pathway
  cyclin D1 expression and cell proliferation: prevented cyclin D1 expression and inhibits cell proliferation
ERK5
  ERK5/BMK1 pathway inhibition: inhibited

## COc1cccc(-c2cc(=O)c3ccccc3o2)c1N [PD98059]
ERK1/2 pathway
  cyclin D1 expression and cell proliferation: prevented cyclin D1 expression and inhibits cell proliferation
ERK5
  ERK5/BMK1 pathway inhibition: inhibited

## Cc1[nH]c(/C=C2\C(=O)Nc3ccccc32)c(C)c1CCC(=O)O [SU6668]
Tumor microvessels
  time to apoptosis in tumor microvessels after initiation of treatment: ≤ 6 h
  time to dose-dependent decreases in tumor microvessel density after first treatment: ≤ 3 days
